From patent US20230192617A1, “AZABICYCLIC(THIO)AMIDES AS FUNGICIDAL COMPOUNDS” (Bayer CropScience Aktiengesellschaft, priority 2020, published 2023) come the findings set out here.

The test system of one data set is Alternaria alternata. The data set can be described thus: Alternaria alternata in vitro cell test. In kind it is cell-based. To be noted: 120 h, 20 ppm of active ingredient, liquid culture, 5 days incubation, spectrometric measurement of mycelium growth, read-out: efficacy (inhibition of fungal growth). On the procedure: (§1) B-6. Alternaria alternata In Vitro Cell Test [table] Fungicides were solubilized in DMSO and the solution used to prepare the required range of concentrations. The final concentration of DMSO used in the assay was ≤1%. A spore suspension of A. alternata was prepared and diluted to the desired spore density. Fungicides were evaluated for their ability to inhibit spore germination and mycelium growth in liquid culture assay. The compounds were added in the desired concentration to the culture medium with spores. After 5 days incubation, fungi-toxicity of compounds was determined by spectrometric measurement of mycelium growth. Inhibition of fungal growth was determined by comparing the absorbance values in wells containing the fungicides with the absorbance in control wells without fungicides.

Data set [1] is described as follows: Measurement of Log P values by HPLC on reversed phase columns (EEC directive 79/831 Annex V.A8). The data set is classed as physicochemical. To be noted: reversed phase HPLC column, method [a]: LC-UV, acidic range, 0.1% formic acid in water and acetonitrile as eluent. The essentials:
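Reversed-phase HPLC with UV detection per EEC 79/831 Annex V.A8, linear 10–95% acetonitrile gradient. Aqueous eluent: 0.1% formic acid (acidic), 0.001 M ammonium acetate (neutral), or 0.1% phosphoric acid (acidic); multiple values in one method joined by "+".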

Data set [2] concerns Botrytis cinerea. In words: B-11. Botrytis cinerea in vitro cell test. The settings on record: 144 h, 20 ppm of active ingredient, 6 days incubation, liquid culture, absorbance, read-out: efficacy (inhibition of fungal growth). The data set is classed as cell-based. On the procedure:
as §1, with “B-11. Botrytis cinerea” for “B-6. Alternaria alternata”, “B. cinerea” for “A. alternata”, “6” for “5”

Data set [3] relates to Botrytis cinerea. In words: In vivo preventive test on Botrytis cinerea (grey mould). To be noted: 500 ppm of active ingredient, preventive spray on gherkin or cabbage, evaluated 4 to 5 days after inoculation, read-out: efficacy. On the procedure: B-2. In Vivo Preventive Test on Botrytis cinerea (Grey Mould) [table] The active ingredients were made soluble and homogenized in a mixture of Dimethyl sulfoxide/Acetone/Tween® 80 and then diluted in water to the desired concentration. The young plants of gherkin or cabbage were treated by spraying the active ingredient prepared as described above. Control plants were treated only with an aqueous solution of Acetone/Dimethyl sulfoxide/Tween® 80. After 24 hours, the plants were contaminated by spraying the leaves with an aqueous suspension of Botrytis cinerea spores. The contaminated gherkin plants were incubated for 4 to 5 days at 17° C. and at 90% relative humidity. The contaminated cabbage plants were incubated for 4 to 5 days at 20° C. and at 100% relative humidity.

For a further data set, the system named is Pyrenophora teres. The data set can be described thus: B-10. Pyrenophora teres in vitro cell test. In kind it is cell-based. The settings on record: 144 h, 20 ppm of active ingredient, 6 days incubation, liquid culture, absorbance, read-out: efficacy (inhibition of fungal growth). The method, then:
as §1, with “B-10. Pyrenophora teres” for “B-6. Alternaria alternata”, “P. teres” for “A. alternata”, “6” for “5”

Data set [4] has as its system Colletotrichum lindemuthianum. The data set can be described thus: B-8. Colletotrichum lindemuthianum in vitro cell test. The settings on record: 144 h, 20 ppm of active ingredient, 6 days incubation, liquid culture, absorbance, read-out: efficacy (inhibition of fungal growth). The data set is classed as cell-based. The method, then:
as §1, with “B-8. Colletotrichum lindemuthianum In” for “B-6. Alternaria alternata In”, “of C. lindemuthianum” for “of A. alternata”, “inhibit spores” for “inhibit spore”, “After 6” for “After 5”

A further data set relates to Alternaria brassicae. The data set can be described thus: In vivo preventive test on Alternaria brassicae (leaf spot on radish or cabbage). The settings on record: 500 ppm of active ingredient, preventive spray on radish or cabbage, evaluated 3 to 4 days after inoculation, read-out: efficacy. The method, then: B-1. In Vivo Preventive Test on Alternaria brassicae (Leaf Spot on Radish or Cabbage) [table] The active ingredients were made soluble and homogenized in a mixture of Dimethyl sulfoxide/Acetone/Tween® 80 and then diluted in water to the desired concentration. The young plants of radish or cabbage were treated by spraying the active ingredient prepared as described above. Control plants were treated only with an aqueous solution of Acetone/Dimethyl sulfoxide/Tween® 80. After 24 hours, the plants were contaminated by spraying the leaves with an aqueous suspension of Alternaria brassicae spores. The contaminated radish or cabbage plants were incubated for 3 to 4 days at 20° C. and at 100% relative humidity.

The inhibition is how much of the control response was suppressed. As usually defined, the chromatographic logP is lipophilicity estimated from chromatographic retention.

As for `O=C(N[C@H]1CCSc2ccc(F)cc21)c1c(Oc2cccc(C(F)(F)F)c2)nnc2ccccc12` (racemic) [I-095], the inhibition at 20 ppm fell in the range of 70 to 79% with Alternaria alternata, 90 to 100% in the data set with Botrytis cinerea [2], 90 to 100% with Pyrenophora teres and 80 to 89% in data set [4]. Besides, the chromatographic logP in data set [1] was 4.02. The pest or weed control at 500 ppm with Botrytis cinerea [3] was in the range of 90 to 100%.
For the compound `O=C(N[C@H]1CCCc2ccc(Br)cc21)c1c(Oc2cccc(C(F)(F)F)c2)nnc2ccccc12` (racemic) [I-096], the chromatographic logP in data set [1] is 4.54. In addition, the inhibition at 20 ppm (with Botrytis cinerea [2]; with Pyrenophora teres; in data set [4]) was 90 to 100% throughout.
With `N#Cc1ccc(C(F)(F)CNC(=O)c2c(Oc3cccc(C(F)(F)F)c3)nnc3ccccc23)c(Cl)c1` [I-098], the values for the inhibition at 20 ppm with Alternaria alternata, with Botrytis cinerea [2] and in the data set with Pyrenophora teres were 80 to 89%, 90 to 100% and 90 to 100%, respectively. In data set [1], the chromatographic logP turned out to be 3.94. The pest or weed control at 500 ppm in the data set with Botrytis cinerea [3] was 90 to 100%.
As for `O=C(N[C@H]1CCCc2ccc(Cl)cc21)c1c(Oc2cccc(C(F)(F)F)c2)nnc2ccccc12` [I-094], the inhibition at 20 ppm is 70 to 79% in the data set on Alternaria alternata, 90 to 100% with Botrytis cinerea [2], 90 to 100% with Pyrenophora teres and 90 to 100% in data set [4]. In data set [1], this compound returned a chromatographic logP of 4.44.
On to `Cc1ccc(C(F)(F)CNC(=O)c2c(Oc3cccc(C(F)(F)F)c3)nnc3cc(F)ccc23)c(C)c1` [I-166], for which the inhibition at 20 ppm (in the data set with Alternaria alternata; with Botrytis cinerea [2]; with Pyrenophora teres; in data set [4]) was 90 to 100% throughout. This compound gave a chromatographic logP in data set [1] of 4.74.
Take `O=C(N[C@H]1CCOc2cc(F)ccc21)c1c(Oc2cccc(C(F)(F)F)c2)nnc2ccccc12` [I-178]: the chromatographic logP in data set [1] amounted to 3.69. The inhibition at 20 ppm (in the data set with Botrytis cinerea [2]; in the data set on Pyrenophora teres; in data set [4]) was 90 to 100% in each case. In addition, the pest or weed control at 500 ppm in the data set on Alternaria brassicae is 90 to 100%.
Compound `C=C(OCC)c1ccc(C(F)(F)CNC(=O)c2c(Oc3cccc(C(F)(F)F)c3)nnc3ccccc23)c(Cl)c1` [I-169] registered a chromatographic logP in data set [1] of 5.16. Besides, the inhibition at 20 ppm with Botrytis cinerea [2] was 90 to 100%; with Pyrenophora teres, 90 to 100%; in data set [4] it was 80 to 89%. Moreover, the pest or weed control at 500 ppm in the data set on Alternaria brassicae lay in the range of 90 to 100%.
On to `O=C(N[C@H]1CCCc2sc(C3CC3)nc21)c1c(Oc2cccc(C(F)(F)F)c2)nnc2ccccc12` (racemic) [I-091], for which the inhibition at 20 ppm with Alternaria alternata fell in the range of 70 to 79%; in the data set on Botrytis cinerea [2], 90 to 100%; in the data set with Pyrenophora teres, 90 to 100%; in data set [4], 80 to 89%. Further, the chromatographic logP in data set [1] amounted to 3.92.
As to `O=C(NC[C@H](F)c1ccc(Cl)c(Cl)c1)c1c(Oc2cccc(C(F)(F)F)c2)nnc2ccccc12` (racemic) [I-182], the inhibition at 20 ppm was 90 to 100% in the data set on Alternaria alternata, 80 to 89% in the data set with Botrytis cinerea [2], 90 to 100% in the data set with Pyrenophora teres and 80 to 89% in data set [4]. Moreover, the chromatographic logP in data set [1] was determined as 4.33.
Consider `O=C(N[C@H]1CCCc2cc(Br)ccc21)c1c(Oc2cccc(C(F)(F)F)c2)nnc2ccccc12` (racemic) [I-193], for which the inhibition at 20 ppm is 70 to 79% with Alternaria alternata, 90 to 100% with Botrytis cinerea [2], 90 to 100% in the data set on Pyrenophora teres and 90 to 100% in data set [4]. Besides, the chromatographic logP in data set [1] was found to be 4.66.
Consider `O=C(NCCOc1ccc(Cl)cc1)c1c(Oc2cccc(C(F)(F)F)c2)nnc2ccccc12` [I-085], for which the inhibition at 20 ppm in the data set on Alternaria alternata lay within 90 to 100%; with Botrytis cinerea [2], 90 to 100%; in the data set with Pyrenophora teres, 90 to 100%; in data set [4], 80 to 89%. The compound also came in with a chromatographic logP in data set [1] of 3.94. Moreover, the pest or weed control at 500 ppm with Alternaria brassicae fell in the range of 90 to 100%.
Turning to `CC(C)Oc1ccc(CCNC(=O)c2c(Oc3cccc(C(F)(F)F)c3)nnc3ccccc23)cn1` [I-087], the inhibition at 20 ppm (with Alternaria alternata; in the data set on Botrytis cinerea [2]; in the data set with Pyrenophora teres; in data set [4]) was 90 to 100% in each case. Moreover, the chromatographic logP in data set [1] came out at 3.63. Moreover, the pest or weed control at 500 ppm in the data set with Alternaria brassicae lay within 80 to 89%.
Turning to `O=C(C[C@H]1C[C@@]12CCc1cc(Br)ccc12)c1c(Oc2cccc(C(F)(F)F)c2)nnc2ccccc12` (mixture of isomers) [I-097], the inhibition at 20 ppm with Alternaria alternata fell in the range of 80 to 89%; in the data set on Botrytis cinerea [2] it was 90 to 100%; with Pyrenophora teres it was 90 to 100%; in data set [4], 90 to 100%. This compound showed a chromatographic logP in data set [1] of 4.74. In addition, the pest or weed control at 500 ppm in the data set with Botrytis cinerea [3] was 80 to 89%.
For `Cc1cnn(CCNC(=O)c2c(Oc3cccc(C(F)(F)F)c3)nnc3ccccc23)c1` [I-076], in data set [1], the chromatographic logP came to 2.74. Further, the inhibition at 20 ppm (in the data set on Botrytis cinerea [2]; in the data set with Pyrenophora teres; in data set [4]) was 90 to 100% in each case. In addition, the pest or weed control at 500 ppm with Alternaria brassicae lay in the range of 80 to 89%.
Turning to `Cc1ccc(C(F)CNC(=O)c2c(Oc3cccc(C(F)F)c3)nnc3c2CCCC3)c(C)c1` (stereo not drawn) [I-135], the inhibition at 20 ppm (in the data set on Alternaria alternata; in the data set with Botrytis cinerea [2]; in the data set with Pyrenophora teres; in data set [4]) was 90 to 100% each time. For the same compound, in data set [1], the chromatographic logP was found to be 3.53.
On to `O=C(N[C@H]1CCS(=O)(=O)c2ccccc21)c1c(Oc2cccc(C(F)(F)F)c2)nnc2ccccc12` [I-174], for which, in data set [1], the chromatographic logP turned out to be 2.98. For the same compound, the inhibition at 20 ppm was in the range of 90 to 100% in the data set on Botrytis cinerea [2], 80 to 89% in the data set on Pyrenophora teres and 80 to 89% in data set [4].
As for `C[C@H](NC(=O)c1c(Oc2cccc(C(F)(F)F)c2)nnc2ccccc12)c1ccc(Cl)s1` (racemic) [I-080], the inhibition at 20 ppm (in the data set on Alternaria alternata; in the data set on Botrytis cinerea [2]; with Pyrenophora teres; in data set [4]) was 90 to 100% each time. Besides, in data set [1], the chromatographic logP amounted to 4.1.
For the compound `CCc1cccc2c1OCC[C@@H]2NC(=O)c1c(Oc2cccc(C(F)(F)F)c2)nnc2ccccc12` (racemic) [I-168], in data set [1], the chromatographic logP is 4.45. In addition, the inhibition at 20 ppm (in the data set with Botrytis cinerea [2]; in the data set on Pyrenophora teres; in data set [4]) was 90 to 100% throughout.
Regarding `Cc1ccc(CCNC(=O)c2c(Oc3cccc(C(F)(F)F)c3)nnc3ccccc23)o1` [I-075], the inhibition at 20 ppm (in the data set with Alternaria alternata; in the data set on Botrytis cinerea [2]; in the data set with Pyrenophora teres; in data set [4]) was 90 to 100% throughout. For the same compound, the chromatographic logP in data set [1] worked out at 3.6.
